Reference: patent US20250032568A1, “TRADITIONAL CHINESE MEDICINE COMPOSITION AND TRADITIONAL CHINESE MEDICINE DECOCTION FOR TREATING GASTROESOPHAGEAL REFLUX DISEASE (GERD), AND PREPARATION METHOD AND USE THEREOF” (AFFILIATED HOSPITAL OF JIANGXI UNIVERSITY OF TRADITIONAL …, priority 2023, published 2025)

Experiments:
Assay type in all cases: in vivo, human
[1] = tested on: gastroesophageal reflux disease (GERD); experiment: Clinical efficacy (total effective rate) in GERD patients; details: 40 per group; for Efficacy (total effective rate): (Recovery+Significant effect+Effective)/total number of cases
Experimental: (§1) In this example, 80 patients who were diagnosed with GERD in the inpatient and outpatient departments of the Gastroenterology Department of the Affiliated Hospital of Jiangxi University of Traditional Chinese Medicine from 2022.6.1 to 2023.2-28 and met this standard were collected, with a total effective rate of 87.5%.
(§2) Treatment group: 100 mL Bid of the traditional Chinese medicine decoction prepared in Example 1
(§3) Control group: 20 mg Bid of an esomeprazole magnesium soluble capsule

[2] = tested on: gastroesophageal reflux disease (GERD); experiment: Reflux Disease Questionnaire (RDQ) score in GERD patients; details: 40 per group, mean ± S
Experimental: as §1, §2, §3
1) Reflux Disease Questionnaire (RDQ)
RDQ is currently the most recognized and widely used diagnostic scale for GERD in the world.
The maximum score for frequency and symptom severity is 40 points, and the GERD is diagnosed when the RDQ score is >12 points.
RDQ scoring criteria: a. Scoring based on the frequency of symptom onset: based on the weekly frequency of four symptoms: heartburn, regurgitation, non-cardiac chest pain, and acid reflux, “never”, “1 week <1 d”, “1 d per 1 week”, “2-3 d per 1 week”, “4-5 d per 1 week”, and “almost every day” were scored as 0, 1, 2, 3, 4, and 5 points, respectively, with a maximum of 20 points. b. […]

[3] = tested on: gastroesophageal reflux disease (GERD); experiment: TCM symptom scoring in GERD patients; details: 40 per group, mean ± S
Experimental: as §1, §2, §3
3) TCM symptom scoring: referring to the “Guiding Principles for Clinical Research of New Traditional Chinese Medicines” for scoring. The scoring criteria are as follows: primary symptoms including acid reflux, heartburn, belching and reflux; the secondary symptoms including retrosternal burning pain, throat discomfort, bitter mouth, nausea. There are 4 levels according to none, mild, moderate, and severe. The primary symptoms are recorded as 0, 2, 4 and 6 points, respectively, while the secondary symptoms are recorded as 0, 1, 2 and 3 points, respectively.

[4] = decoction 100 mL Bid or esomeprazole capsule 20 mg Bid, after the test

Structure (SMILES): COc1ccc2[n-]c([S+]([O-])Cc3ncc(C)c(OC)c3C)nc2c1.COc1ccc2[n-]c([S+]([O-])Cc3ncc(C)c(OC)c3C)nc2c1.[Mg+2] (stereo not drawn) [esomeprazole magnesium soluble capsule, esomeprazole magnesium]
- Efficacy (total effective rate) ([1]; listed as Control): 82.50%
- Efficacy (total effective rate) ([1]; listed as control group): 82.5%
- Effective (number of patients) [1, 4]: 23
- Invalid (number of patients) [1, 4]: 7
- Recovery (number of patients) [1, 4]: 4
- Significant effect (number of patients) [1, 4]: 6
- RDQ score after treatment [2]: 13.73 ± 4.59^[4]
- TCM symptom score after treatment ([3]; after treatment): 8.43 ± 4.29^[4]
- TCM symptom score before treatment ([3]; baseline): 17.85 ± 4.07^[2]
